Experimental data as given in patent publication US20050031537A1, “Multifunctional COX-2 inhibitors” (priority 2002, published 2005).

Legend:
[1] = system: tcf/lef/β-catenin-mediated promoter activation; assay: TOPflash/FOPflash reporter assay for tcf/lef/β-catenin-mediated promoter activation (test (f)); format: cell-based, human; conditions: positive in 184B5, 184B5/HER, HCA7, HCT116, SKBR3 and BT474 cells; 24 h
Description: Tcf/lef/β-catenin is a transcription factor complex that has been implicated in the regulation of genes involved in carcinogenesis. Increased tcf/lef/β-catenin-mediated gene expression has been linked to pathogenesis of colon cancer. Tcf/lef/β-catenin is described in Barker, N., et al, Adv. Cancer Res. 77, 1-24 (2000), the whole of which is incorporated herein by reference.
Cells (cell lines were 184B5, 184B5/HER, HCA7, HCT116, SKBR3 and BT474) were split into 6 well dishes and the next day were transiently transfected using 8 μg of LipofectAMlNE as per the manufacturer's instructions (Invitrogen, CA). 1.8 μg/dish of the wildtype Tcf/Lef reporter plasmid TOP flash or the mutant plasmid FOP flash was transfected into the cells and 0.2 μg of pSV-β-galactosidase. FOPflash differs from TOPflash by the mutation of its Tcf binding sites and serves to differentiate Tef/-catenin-mediated signaling from background (Upstate Biotechnology, Inc.). Cells were incubated overnight and were treated for 24 hours with either vehicle or test compound. Luciferase activity in the extracts was measured as described above and was corrected for background by subtraction of FOP-FLASH values from corresponding TOP-FLASH values.

[2] = system: HPV16 oncoproteins E6 and E7; assay: Western and Northern blotting for HPV16 oncoproteins E6 and E7 (test (d)); format: cell-based, human papillomavirus; conditions: for Test (d) at least 50% downregulation of expression of HPV16 oncoproteins E6 and E7: positive in CaSki and SiHa cells
Experimental: We turn now to the criterion (d), that is at least 50% downregulation of expression of HPV16 oncoproteins E6 and E7.
Protein E6 and E7 which are expressed by HPV16 are believed to play a major role in carcinogenesis.
Western blotting and Northern blotting techniques were used to evaluate the expression of HPV E6 and E7 proteins. The cell lines used for the study were CaSKi and SiHa. The cells were treated with the test compound and cell lysate was obtained as described above and subjected to Western blotting analysis. The Western blotting analysis was performed as described above except anti-HPV 16 E7 antibody was used to probe the blot. The antibody was obtained from Santa Cruz Biotechnology, Inc. CA. For Northern blotting, total cellular RNA was isolated from cell monolayers using an RNA isolation kit from QIAGEN Inc. after treatment with the test compound. 10 μg of total cellular RNA per lane were electrophoresed in a formaldehyde-containing 1.2% agarose gel and transferred to nylon-supported membranes. After baking, membranes were prehybridized overnight in a solution containing 50% formamide, 5×sodium chloride-sodium phosphate-EDTA buffer (SSPE), 5×Denhardt's solution, 0.1% SDS and 100 μg/ml single-stranded salmon sperm DNA and then hybridized for 12 h at 42° C. with radiolabeled cDNA probes for human HPV16 E6 or E7 cDNAs and 18S rRNA. E6 and E7 (as described in Woodworth, C. D., Cancer Res. 16, 4397-4402 (2000)) and 18S rRNA probes were labeled with [^32P]-CTP by random priming. After hybridization, membranes were washed twice for 20 min at room temperature in 2×SSPE-0.1% SDS, twice for 20 min in the same solution at 55° C., and twice for 20 min in 0.1×SSPE-0.1% SDS at 55° C. Washed membranes were then subjected to autoradiography.

PTEN = assay: Western and Northern blotting for expression of PTEN (test (e)); format: cell-based, human; conditions: for Test (e) at least 50% increase in expression of PTEN: positive in 184B5, 184B5/HER, HCA7, HCT116, SKBR3 and BT474 cells
Experimental: We turn now to criterion (e), i.e., at least 50% increase in expression of PTEN.
PTEN is a tumor suppressor that inhibits cell proliferation and induces programmed cell death. PTEN (also know as MMAC-1 or TEP-1) is described in Yamada, K. M., et al, Journal of Cell Science 114, 2375-2382, the whole of which is incorporated herein by reference.
Western blotting and Northern blotting techniques were used to evaluate the expression of PTEN. The expression of PTEN was evaluated in HCA7, HCT116, SKBR3, 184B5/HER, 184B5 and BT474 cells. 5×10^6cells were used to treat either vehicle alone or the test compound. The Western blotting analysis was performed as described above except anti-PTEN antibody was used to probe the blot. The antibody was obtained from Santa Cruz Biotechnology, Inc. CA. Northern blotting for PTEN was performed as described above and cDNA for PTEN as described in Tamura, M., et al, Science 5; 280 (5369):1614-1617 (1998), was used as a probe.

Q: For `Cc1ccc(-c2cc(C(F)(F)F)nn2-c2ccc(S(N)(=O)=O)cc2)cc1` [Celecoxib], which “Test (f) at least 50% inhibition of tcf/lef/β-catenin-mediated promoter activation” value [1] is on record?
A: + (A plus sign in the table indicates a positive result, that is meeting the test for each cell line as indicated above as providing a positive result)

Q: And the “Test (d) at least 50% downregulation of expression of HPV16 oncoproteins E6 and E7” value (from here on “Test (d) at least 50% downregulation”) [2]?
A: + (A plus sign in the table indicates a positive result, that is meeting the test for each cell line as indicated above as providing a positive result)

Q: And the “Test (e) at least 50% increase in expression of PTEN” value (“Test (e) at least 50% increase” for short) (PTEN)?
A: + (A plus sign in the table indicates a positive result, that is meeting the test for each cell line as indicated above as providing a positive result)

Q: Which “Test (f) at least 50% inhibition of tcf/lef/β-catenin-mediated promoter activation” value [1] does the source give for `CCCCCCCOC(=O)Cc1c(C)n(C(=O)c2ccc(Cl)cc2)c2ccc(OC)cc12` [Indomethacin Analog 1, indomethacin heptyl ester] here?
A: + (A plus sign in the table indicates a positive result, that is meeting the test for each cell line as indicated above as providing a positive result)

Q: And the “Test (d) at least 50% downregulation” value [2]?
A: + (A plus sign in the table indicates a positive result, that is meeting the test for each cell line as indicated above as providing a positive result)

Q: And the “Test (e) at least 50% increase” value (PTEN)?
A: + (A plus sign in the table indicates a positive result, that is meeting the test for each cell line as indicated above as providing a positive result)

Q: With `COc1ccc(OC(=O)Cc2c(C)n(C(=O)c3ccc(Cl)cc3)c3ccc(OC)cc23)cc1` [Indomethacin Analog 3, 1-(p-chlorobenzoyl)-5-methoxy-2-methyl-1H-indole-3-acetic acid, 4-methoxyphenyl ester] as the compound, how does the “Test (f) at least 50% inhibition of tcf/lef/β-catenin-mediated promoter activation” value [1] read?
A: + (A plus sign in the table indicates a positive result, that is meeting the test for each cell line as indicated above as providing a positive result)

Q: `NS(=O)(=O)c1ccc(-n2nc(C(F)(F)F)cc2-c2ccc(Cl)cc2)cc1` [SC-236, 4-[5-(4-chlorophenyl)-3-(trifluoromethyl)-1H-pyrazol-1-yl]benzenesulfonamide] was tested. Which “Test (f) at least 50% inhibition of tcf/lef/β-catenin-mediated promoter activation” value [1] did it give?
A: + (A plus sign in the table indicates a positive result, that is meeting the test for each cell line as indicated above as providing a positive result)

Q: What about the “decrease in amounts of E6 mRNA” value ([2]; CaSki cells, 24 hours, 0-5.0 μM, Northern blotting) of the same compound?
A: greater than 50%

Q: And the “inhibition of HPV16 E7 protein” value ([2]; CaSki cells, 24 hours, 0-5.0 μM, high concentration, Western blot)?
A: greater than 50%

Q: And the “Test (d) at least 50% downregulation” value [2]?
A: + (A plus sign in the table indicates a positive result, that is meeting the test for each cell line as indicated above as providing a positive result)

Q: What about the “increase in amounts of PTEN” value (PTEN; 184B5 cells, 24 hours, Western blotting) of the same compound?
A: > 100%

Q: And the “Test (e) at least 50% increase” value (PTEN)?
A: + (A plus sign in the table indicates a positive result, that is meeting the test for each cell line as indicated above as providing a positive result)

Q: Which results are given for `CS(=O)(=O)c1ccc(-n2nc(C(F)(F)F)cc2-c2ccc(F)cc2)cc1` [SC-58125, 4-[5-(4-fluorophenyl)-3-(trifluoromethyl)-1H-pyrazol-1-yl]benzenemethylsulfone]?
A: Test (f) at least 50% inhibition of tcf/lef/β-catenin-mediated promoter activation [1]: + (A plus sign in the table indicates a positive result, that is meeting the test for each cell line as indicated above as providing a positive result); Test (d) at least 50% downregulation of expression of HPV16 oncoproteins E6 and E7 [2]: + (A plus sign in the table indicates a positive result, that is meeting the test for each cell line as indicated above as providing a positive result); Test (e) at least 50% increase in expression of PTEN (PTEN): + (A plus sign in the table indicates a positive result, that is meeting the test for each cell line as indicated above as providing a positive result)
